Experimental data taken from PubChem BioAssay (NCI).
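All cell lines were grown in 96-well plates and treated with compound for 48 hours. Here, GI50 denotes the concentration required for 50% inhibition of growth. At the TGI there is no net growth.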

Legend:
Assay in all cases: NCI tumour cell line growth inhibition, 48 h
[1] = tested on: IGROV1 ovarian
[2] = tested on: COLO 205 colon
[3] = tested on: OVCAR-8 ovarian
[4] = tested on: K-562 leukemia
[5] = tested on: OVCAR-5 ovarian
[6] = tested on: HCT-15 colon
[7] = tested on: RXF 393 renal
[8] = tested on: NCI-H23 lung
[9] = tested on: 786-0 renal
[10] = tested on: SNB-75 CNS

## COc1ccc(-c2ccc(/C=N/n3c(COc4ccc(Cl)cc4Cl)n[nH]c3=S)o2)c([N+](=O)[O-])c1
[1]
  GI50: 38.7 µM
  TGI: > 100 µM
[2]
  GI50: 32.9 µM
  TGI: > 100 µM
[3]
  GI50: 29.7 µM
  TGI: > 100 µM
[4]
  GI50: 19.3 µM
  TGI: 47.4 µM
[5]
  GI50: 21.3 µM
  TGI: 47.6 µM
[6]
  GI50: 28.6 µM
  TGI: > 100 µM
[7]
  GI50: 16.6 µM
  TGI: 40.2 µM
[8]
  GI50: 16.1 µM
  TGI: 33.2 µM
[9]
  GI50: 29 µM
  TGI: 54.2 µM

## CC1=NOC(=O)/C1=C/c1ccccc1O
[1]
  TGI: > 100 µM
[2]
  TGI: > 100 µM
[10]
  TGI: > 100 µM
[3]
  TGI: > 100 µM
[4]
  TGI: > 100 µM
[5]
  TGI: > 100 µM
[6]
  TGI: > 100 µM
[8]
  TGI: > 100 µM
[9]
  TGI: > 100 µM

## CN(C)S(=O)(=O)c1ccc(NC(=O)COC(=O)c2ccc(S(=O)(=O)N3CCCCC3)cc2)cc1
[1]
  GI50: > 100 µM
  TGI: > 100 µM
[2]
  GI50: > 100 µM
  TGI: > 100 µM
[10]
  GI50: > 100 µM
  TGI: > 100 µM
[4]
  GI50: > 100 µM
  TGI: > 100 µM
[5]
  GI50: > 100 µM
  TGI: > 100 µM
[6]
  GI50: > 100 µM
  TGI: > 100 µM
[7]
  GI50: > 100 µM
  TGI: > 100 µM
[8]
  GI50: > 100 µM
  TGI: > 100 µM
[9]
  GI50: > 100 µM
  TGI: > 100 µM

## C=CCC1([C@H](C)[C@@H](OC(C)=O)c2cc(OC)c(OC)c(OC)c2)C[C@@H](OC)CCC1=O (some centres undefined)
[1]
  TGI: 33.5 µM
[2]
  TGI: 42.2 µM
[10]
  TGI: 36 µM
[3]
  TGI: 54.2 µM
[4]
  TGI: > 100 µM
[6]
  TGI: 40.8 µM
[7]
  TGI: 26.6 µM
[8]
  TGI: 22.8 µM
[9]
  TGI: 26.7 µM

## CC1CCCCc2nc3c(c(=O)n21)CCCC3 (centres undefined)
[1]
  TGI: > 100 µM
[2]
  TGI: > 100 µM
[10]
  TGI: > 100 µM
[3]
  TGI: > 100 µM
[4]
  TGI: > 100 µM
[5]
  TGI: > 100 µM
[6]
  TGI: > 100 µM
[8]
  TGI: > 100 µM
[9]
  TGI: > 100 µM

## COc1ccccc1NC(=O)CC(=O)N1N=C(C)C(N=Nc2ccc(S(N)(=O)=O)cc2)C1=O (centres undefined)
[1]
  TGI: > 100 µM
[2]
  TGI: > 100 µM
[10]
  TGI: > 100 µM
[3]
  TGI: > 100 µM
[5]
  TGI: > 100 µM
[6]
  TGI: > 100 µM
[7]
  TGI: > 100 µM
[8]
  TGI: > 100 µM
[9]
  TGI: > 100 µM

## Cc1ccncc1.[O]=[Ge].[O]=[Ge].[O]=[Ge].[O]=[Ge].[O]=[Ge].[O]=[Ge][OH].[O]=[Ge][OH]
[1]
  GI50: > 100 µM
  TGI: > 100 µM
[10]
  GI50: > 100 µM
  TGI: > 100 µM
[3]
  GI50: > 100 µM
  TGI: > 100 µM
[4]
  GI50: > 100 µM
  TGI: > 100 µM
[5]
  GI50: > 100 µM
  TGI: > 100 µM
[6]
  GI50: > 100 µM
  TGI: > 100 µM
[7]
  GI50: > 100 µM
  TGI: > 100 µM
[8]
  GI50: > 100 µM
  TGI: > 100 µM
[9]
  GI50: > 100 µM
  TGI: > 100 µM

## C=C1C(=O)O[C@H]2[C@H]1[C@H](OC(=O)/C(C)=C\C)CC(=C)[C@@H]1[C@H](O)[C@H]3O[C@@]3(C)[C@@]12O
[1]
  TGI: > 100 µM
[2]
  TGI: > 100 µM
[10]
  TGI: > 100 µM
[3]
  TGI: > 100 µM
[4]
  TGI: > 100 µM
[6]
  TGI: > 100 µM
[8]
  TGI: > 100 µM
[9]
  TGI: > 100 µM

## CN(C(=O)C12C3C4C5C3C1(C(=O)O)C5C42)C(C)(C)C (centres undefined)
[1]
  TGI: > 100 µM
[2]
  TGI: 72.3 µM
[10]
  TGI: > 100 µM
[3]
  TGI: > 100 µM
[4]
  TGI: > 100 µM
[5]
  TGI: > 100 µM
[6]
  TGI: > 100 µM
[8]
  TGI: > 100 µM
[9]
  TGI: > 100 µM

## Nc1cc2cccc[n+]2c2cc(Cl)ccc12
[1]
  GI50: 71.6 µM
[2]
  GI50: 11.8 µM
[10]
  GI50: 21.5 µM
  TGI: 62.7 µM
[3]
  GI50: 16.8 µM
  TGI: 57.9 µM
[4]
  GI50: 3.01 µM
  TGI: 22 µM
[5]
  GI50: 25.7 µM
[7]
  GI50: 87.9 µM
[8]
  GI50: 13.2 µM
  TGI: 53.6 µM
[9]
  GI50: 8.16 µM

## Cc1sc(C(=O)Nc2cc(C(=O)NCCCN(C)C)n(C)c2)cc1NC(=O)CCCN1C(=O)c2cccc3cccc(c23)C1=O
[1]
  GI50: > 100 µM
  TGI: > 100 µM
[2]
  GI50: > 100 µM
  TGI: > 100 µM
[10]
  GI50: > 100 µM
  TGI: > 100 µM
[4]
  GI50: > 100 µM
  TGI: > 100 µM
[5]
  GI50: > 100 µM
  TGI: > 100 µM
[6]
  GI50: > 100 µM
  TGI: > 100 µM
[8]
  GI50: > 100 µM
  TGI: > 100 µM
[9]
  GI50: > 100 µM
  TGI: > 100 µM

## O=C(c1ccccc1)C1N=NCC1c1ccc([N+](=O)[O-])cc1 (centres undefined)
[2]
  TGI: > 100 µM
[10]
  TGI: 69.2 µM
[3]
  TGI: > 100 µM
[4]
  TGI: > 100 µM
[5]
  TGI: > 100 µM
[6]
  TGI: > 100 µM
[8]
  TGI: > 100 µM
[9]
  TGI: > 100 µM

## Nc1ccn(Cc2ccc(C34CC5CC(CC(C5)C3)C4)c(O)c2)c(=O)n1
[2]
  GI50: > 100 µM
  TGI: > 100 µM
[10]
  GI50: 24 µM
  TGI: 84 µM
[4]
  GI50: 35.3 µM
  TGI: > 100 µM
[5]
  GI50: > 100 µM
  TGI: > 100 µM
[6]
  GI50: > 100 µM
  TGI: > 100 µM
[8]
  GI50: 54.5 µM
  TGI: > 100 µM
[9]
  GI50: 47.7 µM
  TGI: > 100 µM

## O=c1c2c([nH]c3cc4c(cc13)OCO4)-c1ccccc1CC2
[1]
  TGI: > 100 µM
[2]
  TGI: > 100 µM
[10]
  TGI: > 100 µM
[3]
  TGI: > 100 µM
[4]
  TGI: > 100 µM
[6]
  TGI: > 100 µM
[7]
  TGI: > 100 µM
[8]
  TGI: > 100 µM
[9]
  TGI: > 100 µM

## COc1ccccc1NC(=O)C1=C(C)NC(C)=C(C(=O)Nc2ccccc2OC)C1c1ccccc1F
[1]
  TGI: > 100 µM
[2]
  TGI: > 100 µM
[10]
  TGI: 62.4 µM
[3]
  TGI: > 100 µM
[4]
  TGI: > 100 µM
[5]
  TGI: > 100 µM
[6]
  TGI: > 100 µM
[8]
  TGI: > 100 µM
[9]
  TGI: > 100 µM

## COc1ccc2c(c1)C(O)(C(F)(F)F)c1cc(C(=O)C(F)(F)F)c3ccccc3c1N2 (centres undefined)
[1]
  TGI: 27.9 µM
[2]
  TGI: 19.5 µM
[10]
  TGI: 36 µM
[4]
  TGI: 15.7 µM
[5]
  TGI: 27.5 µM
[6]
  TGI: 21 µM
[7]
  TGI: 23.8 µM
[8]
  TGI: 25.6 µM
[9]
  TGI: 26.3 µM

## COC(=O)CCC1CCc2c(OC)ccc(O)c2C1=O (centres undefined)
[1]
  TGI: > 100 µM
[2]
  TGI: > 100 µM
[10]
  TGI: > 100 µM
[3]
  TGI: > 100 µM
[4]
  TGI: > 100 µM
[6]
  TGI: > 100 µM
[7]
  TGI: > 100 µM
[8]
  TGI: > 100 µM
[9]
  TGI: > 100 µM

## COc1ccc(-c2cc(=O)c3cc4c(cc3[nH]2)OCO4)c(OC)c1OC
[1]
  TGI: > 100 µM
[2]
  TGI: > 100 µM
[10]
  TGI: 82.2 µM
[3]
  TGI: > 100 µM
[4]
  TGI: > 100 µM
[6]
  TGI: > 100 µM
[7]
  TGI: > 100 µM
[8]
  TGI: > 100 µM
[9]
  TGI: > 100 µM

## CC(C)(C)OC(=O)C#CC[C@H]1CCCC1/C=C/C(O)=C1/C(=O)NC(CCCNC(=O)OC(C)(C)C)C1=O (some centres undefined)
[1]
  TGI: > 100 µM
[2]
  TGI: 33.6 µM
[10]
  TGI: > 100 µM
[3]
  TGI: 31.6 µM
[4]
  TGI: 89.3 µM
[5]
  TGI: > 100 µM
[7]
  TGI: 30 µM
[8]
  TGI: 78.3 µM
[9]
  TGI: > 100 µM

## COC(=O)c1csnn1
[1]
  TGI: > 100 µM
[2]
  TGI: > 100 µM
[3]
  TGI: > 100 µM
[4]
  TGI: > 100 µM
[6]
  TGI: > 100 µM
[8]
  TGI: > 100 µM
[9]
  TGI: > 100 µM
